From patent US10112944B2, “Heterocyclic compounds useful as inhibitors of TNF” (BRISTOL-MYERS SQUIBB COMPANY, priority 2015, dated 2018)

Target: TNFα (Homo sapiens (Human), UniProt P01375)
Experiment: TNF induced HEK-Blue assay
Type: cell-based
Conditions: HEK-Blue-CD40L cells, TNFα 0.5 ng/ml, NF-κB-driven secreted alkaline phosphatase reporter, 18 h
Experimental: TNF or CD40L-Induced HEK-Blue Assay
Test compounds serially diluted in DMSO were plated in an assay plate (Labcyte, Cat. #LP-0200) at final concentrations ranging from 0.004 μM to 25 μM. TNFα (final concentration 0.5 ng/ml) or CD40L (final concentration 30 ng/ml) in assay buffer [DMEM, 4.5 g/l glucose (Gibco, Cat. 21063-029), 10% FBS (Sigma, F4135), 1% Penicillin-Streptomycin (Gibco, Cat. 15140-122), 1% Anti-Anti (Gibco, Cat. 15240-112) and 2 mM L-glutamine (Gibco, Cat. 25030-081)] was then added to the assay plate. After a 30 minute pre-incubation at 37° C. and 5% CO2, HEK-Blue-CD40L cells (InvivoGen, Cat. Code hkb-cd40) containing a NF-κB-driven secreted alkaline phosphatase reporter gene were seeded into the assay plate at a density of 20,000 cells per well. This plate was then incubated for 18 h at 37° C. and 5% CO2. Secreted alkaline phosphatase expression was measured using QUANTI-Blue (InvivoGen, Cat. Code rep-qbl) according to manufacturer's specifications and the assay plate was read on a PerkinElmer Envision at 620 nm.
Inhibition data for the test compound over a range of concentrations was plotted as percentage inhibition of the test compound (100%=maximum inhibition). IC50 values were determined after correcting for background [(sample read−mean of low control)/(mean of high control−mean of low control)] where by the low control is DMSO without stimulation and high control is DMSO with stimulation. The IC50 is defined as the concentration of test compound which produces 50% inhibition and was quantified using the 4 parameter logistic equation to fit the data.

TNFα, sequence (P01375 77-233): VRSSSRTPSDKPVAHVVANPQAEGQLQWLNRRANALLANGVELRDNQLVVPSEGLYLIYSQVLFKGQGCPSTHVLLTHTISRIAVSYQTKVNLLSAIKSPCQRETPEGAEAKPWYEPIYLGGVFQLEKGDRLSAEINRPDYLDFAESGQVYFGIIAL

Compound | IC50 [nM]
COc1ccc(-c2cn3c4c(nc3cc2C)CCCN4c2ccccc2OC(F)F)cn1 [Example 2, 1-(2-(Difluoromethoxy)phenyl)-8-(6-methoxypyridin-3-yl)-7-methyl-1,2,3,4-tetrahydroimidazo[1,2-a:5,4-b′]dipyridine] | < 1000
COc1ccc(-c2ccc3nc4c(n3c2)N(c2cc(C)ccc2OC)CCC4)cn1 [Example 7, 1-(2-Methoxy-5-methylphenyl)-8-(6-methoxypyridin-3-yl)-1,2,3,4-tetrahydroimidazo [1,2-a:5,4-b′]dipyridine] | < 1000
COc1ccc(-c2ccc3nc4c(n3c2)N(c2ccccc2C)CCC4)cn1 [Example 9, 8-(6-Methoxypyridin-3-yl)-1-(o-tolyl)-1,2,3,4-tetrahydroimidazo[1,2-a:5,4-b′]dipyridine] | < 1000
COc1ccc(-c2ccc3nc4c(n3c2)N(c2ccccc2OC(F)(F)F)CCC4)cn1 [Example 10, 8-(6-Methoxypyridin-3-yl)-1-(2-(trifluoromethoxy)phenyl)-1,2,3,4-tetrahydroimidazo[1,2-a:5,4-b′]dipyridine] | < 1000
Cc1ccc(C)c(N2CCCc3nc4ccc(-c5cnn(C)c5)cn4c32)c1 [Example 12, 1-(2,5-Dimethylphenyl)-8-(1-methyl-1H-pyrazol-4-yl)-1,2,3,4-tetrahydroimidazo [1,2-a:5,4-b′]dipyridine] | < 1000
Cc1ccc(C)c(N2CCCc3nc4ccc(-c5cnc(N6CCOCC6)nc5)cn4c32)c1 [Example 14, 4-(5-(1-(2,5-Dimethylphenyl)-1,2,3,4-tetrahydroimidazo[1,2-a:5,4-b′]dipyridin-8-yl)pyrimidin-2-yl)morpholine] | < 1000
Cc1nnc(-c2ccc(-c3ccc4nc5c(n4c3)N(c3ccccc3OC(F)F)CCC5)cc2)o1 [Example 17, 2-(4-(1-(2-(Difluoromethoxy)phenyl)-1,2,3,4-tetrahydroimidazo[1,2-a:5,4-b′]dipyridin-8-yl)phenyl)-5-methyl-1,3,4-oxadiazole] | < 1000
Cc1ccc(C)c(N2CCCc3nc4ccc(-c5cnc(C(C)(C)O)nc5)cn4c32)c1 [Example 18, 2-(5-(1-(2,5-Dimethylphenyl)-1,2,3,4-tetrahydroimidazo[1,2-a:5,4-b′]dipyridin-8-yl)pyrimidin-2-yl)propan-2-ol] | < 1000
Cc1ccc(OC(F)F)c(N2CCCc3nc4ccc(-c5cnc(N6CCOCC6)nc5)cn4c32)c1 [Example 19, 4-(5-(1-(2-(Difluoromethoxy)-5-methylphenyl)-1,2,3,4-tetrahydroimidazo [1,2-a:5,4-b′]dipyridin-8-yl)pyrimidin-2-yl)morpholine] | < 1000
COc1ccc(-c2ccc3nc4c(n3c2)N(c2cc(C)ccc2OC(F)F)CCC4)cn1 [Example 20, 1-(2-(Difluoromethoxy)-5-methylphenyl)-8-(6-methoxypyridin-3-yl)-1,2,3,4-tetrahydroimidazo[1,2-a:5,4-b′]dipyridine] | < 1000
COc1ccc(-c2cn3c4c(nc3cc2Cl)CCCN4c2ccccc2OC(F)F)cn1 [Example 22, 7-Chloro-1-(2-(difluoromethoxy)phenyl)-8-(6-methoxypyridin-3-yl)-1,2,3,4-tetrahydroimidazo[1,2-a:5,4-b′]dipyridine] | 1000 to 10000
COc1ccc(-c2ccc3nc4c(n3c2)N(c2cccc(C)c2C)CCC4)cn1 [Example 24, 1-(2,3-Dimethylphenyl)-8-(6-methoxypyridin-3-yl)-1,2,3,4-tetrahydroimidazo [1,2-a:5,4-b′]dipyridine] | 1000 to 10000
COc1ccc(-c2ccc3nc4c(n3c2)N(c2cc(F)ccc2C)CCC4)cn1 [Example 25, 1-(5-Fluoro-2-methylphenyl)-8-(6-methoxypyridin-3-yl)-1,2,3,4-tetrahydroimidazo [1,2-a:5,4-b′]dipyridine] | < 1000
COc1ccc(-c2ccc3nc4c(n3c2)N(c2ccc(F)cc2C)CCC4)cn1 [Example 26, 1-(4-Fluoro-2-methylphenyl)-8-(6-methoxypyridin-3-yl)-1,2,3,4-tetrahydroimidazo [1,2-a:5,4-b′]dipyridine] | < 1000

Now from value to molecule:

IC50 [nM] | Compound
1000 to 10000 | COc1ccc(-c2cn3c4c(nc3cc2C)CCCN4c2cc(C)ccc2C)cn1 [Example 1, 1-(2,5-Dimethylphenyl)-8-(6-methoxypyridin-3-yl)-7-methyl-1,2,3,4-tetrahydroimidazo [1,2-a:5,4-b′]dipyridine]
< 1000 | Cc1ccc(C)c(N2CCCc3nc4cc(C)c(-c5cnn(C)c5)cn4c32)c1 [Example 3, 1-(2,5-Dimethylphenyl)-7-methyl-8-(1-methyl-1H-pyrazol-4-yl)-1,2,3,4-tetrahydroimidazo[1,2-a:5,4-b′]dipyridine]
1000 to 10000 | Cc1cc2nc3c(n2cc1-c1cnn(C)c1)N(c1ccccc1OC(F)F)CCC3 [Example 4, 1-(2-(Difluoromethoxy)phenyl)-7-methyl-8-(1-methyl-1H-pyrazol-4-yl)-1,2,3,4-tetrahydroimidazo[1,2-a:5,4-b′]dipyridine]
< 1000 | COc1ccc(-c2ccc3nc4c(n3c2)N(c2cc(C)ccc2C)CCC4)cn1 [Example 5, 1-(2,5-Dimethylphenyl)-8-(6-methoxypyridin-3-yl)-1,2,3,4-tetrahydroimidazo [1,2-a:5,4-b′]dipyridine]
< 1000 | COc1ccc(-c2ccc3nc4c(n3c2)N(c2ccccc2OC(F)F)CCC4)cn1 [Example 6, 1-(2-(Difluoromethoxy)phenyl)-8-(6-methoxypyridin-3-yl)-1,2,3,4-tetrahydroimidazo[1,2-a:5,4-b′]dipyridine]
1000 to 10000 | COc1ccc(-c2ccc3nc4c(n3c2)N(c2nccc3ccccc23)CCC4)cn1 [Example 8, 1-(Isoquinolin-1-yl)-8-(6-methoxypyridin-3-yl)-1,2,3,4-tetrahydroimidazo [1,2-a:5,4-b′]dipyridine]
1000 to 10000 | COc1ccc(-c2ccc3nc4c(n3c2)N(c2cc(C(F)(F)F)ccc2C)CCC4)cn1 [Example 11, 8-(6-Methoxypyridin-3-yl)-1-(2-methyl-5-(trifluoromethyl)phenyl)-1,2,3,4-tetrahydroimidazo[1,2-a:5,4-b′]dipyridine]
< 1000 | Cn1cc(-c2ccc3nc4c(n3c2)N(c2ccccc2OC(F)F)CCC4)cn1 [Example 13, 1-(2-(Difluoromethoxy)phenyl)-8-(1-methyl-1H-pyrazol-4-yl)-1,2,3,4-tetrahydroimidazo[1,2-a:5,4-b′]dipyridine]
< 1000 | FC(F)Oc1ccccc1N1CCCc2nc3ccc(-c4cnc(N5CCOCC5)nc4)cn3c21 [Example 15, 4-(5-(1-(2-(Difluoromethoxy)phenyl)-1,2,3,4-tetrahydroimidazo[1,2-a:5,4-b′]dipyridin-8-yl)pyrimidin-2-yl)morpholine]
< 1000 | Cc1ccc(C)c(N2CCCc3nc4ccc(-c5ccc(-c6nnc(C)o6)cc5)cn4c32)c1 [Example 16, 2-(4-(1-(2,5-Dimethylphenyl)-1,2,3,4-tetrahydroimidazo[1,2-a:5,4-b′]dipyridin-8-yl)phenyl)-5-methyl-1,3,4-oxadiazole]
< 1000 | CC(C)(O)c1ncc(-c2cn3c4c(nc3cc2Cl)CCCN4c2ccccc2)cn1 [Example 21, 2-(5-(7-Chloro-1-phenyl-1,2,3,4-tetrahydroimidazo[1,2-a:5,4-b′]dipyridin-8-yl)pyrimidin-2-yl)propan-2-ol]
1000 to 10000 | COc1ccc(-c2cn3c4c(nc3cc2Cl)CCCN4c2cc(C)ccc2C)cn1 [Example 23, 7-Chloro-1-(2,5-dimethylphenyl)-8-(6-methoxypyridin-3-yl)-1,2,3,4-tetrahydroimidazo[1,2-a:5,4-b′]dipyridine]
